Species on record: Rattus norvegicus
Assay: DrugMatrix - Regimen: Daily Repeat
Assay type: toxicity, organism-based, Sprague-Dawley
Set-up: regimen Daily Repeat, gender Male, age 6-8 weeks
Details: in vivo, po, route oral GAVAGE, vehicle 100 % WATER; for ABSOLUTE BASOPHIL / ABSOLUTE EOSINOPHIL / ABSOLUTE LYMPHOCYTE / ABSOLUTE MONOCYTE / ABSOLUTE SEGMENTED NEUTROPHIL / BASOPHIL / EOSINOPHIL / ERYTHROCYTE COUNT / HEMATOCRIT / HEMOGLOBIN / LEUKOCYTE COUNT / LYMPHOCYTE / MEAN CORPUSCULAR HEMOGLOBIN / MEAN CORPUSCULAR HEMOGLOBIN CONCENTRATION / MEAN CORPUSCULAR VOLUME / MONOCYTE / NEUTROPHIL / NUCLEATED RED BLOOD CELLS / PLATELET COUNT: tissue Blood; for ALANINE AMINOTRANSFERASE / ALBUMIN / ALKALINE PHOSPHATASE / ASPARTATE AMINOTRANSFERASE / BLOOD UREA NITROGEN / CARBON DIOXIDE / CHLORIDE / CHOLESTEROL / CREATINE PHOSPHOKINASE / CREATININE / GLUCOSE / LACTATE DEHYDROGENASE / LIPASE / PHOSPHORUS / POTASSIUM / SODIUM / TOTAL BILIRUBIN / TOTAL PROTEIN / URIC ACID: tissue Plasma
[1] = 0 mg/kg, 72 h, dose level Control, time 3 day
[2] = 0 mg/kg, 120 h, dose level Control, time 5 day
[3] = 5 mg/kg, 72 h, dose level Low, time 3 day

COc1cc2nc(N3CCN(C(=O)C4COc5ccccc5O4)CC3)nc(N)c2cc1OC (centres undefined) [DOXAZOSIN]
ABSOLUTE BASOPHIL [1]: 0 CELLS/uL
ABSOLUTE EOSINOPHIL [1]: 86.33 CELLS/uL
ABSOLUTE LYMPHOCYTE [1]: 12090.17 CELLS/uL
ABSOLUTE MONOCYTE [1]: 166.67 CELLS/uL
ABSOLUTE SEGMENTED NEUTROPHIL [1]: 1090.17 CELLS/uL
BASOPHIL [1]: 0%
EOSINOPHIL [1]: 0.67%
ERYTHROCYTE COUNT [1]: 5.57 x10E6/uL
HEMATOCRIT [1]: 35.33%
HEMOGLOBIN [1]: 13.83 G/DL
LEUKOCYTE COUNT [1]: 13.43 x10E3/uL
LYMPHOCYTE [1]: 89.83%
MEAN CORPUSCULAR HEMOGLOBIN [1]: 24.88 pg
MEAN CORPUSCULAR HEMOGLOBIN CONCENTRATION [1]: 39.15 G/DL
MEAN CORPUSCULAR VOLUME [1]: 63.52 fL
MONOCYTE [1]: 1.17%
NEUTROPHIL [1]: 8.33%
NUCLEATED RED BLOOD CELLS [1]: 0 /100WBC
PLATELET COUNT [1]: 1181.33 x10E3/uL
ALANINE AMINOTRANSFERASE [1]: 48.33 u/L
ALBUMIN [1]: 4.1 G/DL
ALKALINE PHOSPHATASE [1]: 395 u/L
ASPARTATE AMINOTRANSFERASE [1]: 81.83 u/L
BLOOD UREA NITROGEN [1]: 15.83 mg/dL
CARBON DIOXIDE [1]: 24.17 mmol/L
CHLORIDE [1]: 103.83 MEQ/L
CHOLESTEROL [1]: 63.67 mg/dL
CREATINE PHOSPHOKINASE [1]: 372.83 u/L
CREATININE [1]: 0.18 mg/dL
GLUCOSE [1]: 173.83 mg/dL
LACTATE DEHYDROGENASE [1]: 188.33 u/L
LIPASE [1]: 9.5 u/L
PHOSPHORUS [1]: 11.95 mg/dL
POTASSIUM [1]: 5.99 MEQ/L
SODIUM [1]: 144.43 MEQ/L
TOTAL BILIRUBIN [1]: 0.15 mg/dL
TOTAL PROTEIN [1]: 5.95 G/DL
URIC ACID [1]: 1.82 mg/dL
ABSOLUTE BASOPHIL [2]: 0 CELLS/uL
ABSOLUTE EOSINOPHIL [2]: 26.67 CELLS/uL
ABSOLUTE LYMPHOCYTE [2]: 7583.83 CELLS/uL
ABSOLUTE MONOCYTE [2]: 131.33 CELLS/uL
ABSOLUTE SEGMENTED NEUTROPHIL [2]: 674.83 CELLS/uL
BASOPHIL [2]: 0%
EOSINOPHIL [2]: 0.33%
ERYTHROCYTE COUNT [2]: 5.78 x10E6/uL
HEMATOCRIT [2]: 36.48%
HEMOGLOBIN [2]: 14.03 G/DL
LEUKOCYTE COUNT [2]: 8.42 x10E3/uL
LYMPHOCYTE [2]: 89.83%
MEAN CORPUSCULAR HEMOGLOBIN [2]: 24.3 pg
MEAN CORPUSCULAR HEMOGLOBIN CONCENTRATION [2]: 38.52 G/DL
MEAN CORPUSCULAR VOLUME [2]: 63.15 fL
MONOCYTE [2]: 1.67%
NEUTROPHIL [2]: 8.17%
NUCLEATED RED BLOOD CELLS [2]: 0 /100WBC
PLATELET COUNT [2]: 1186.67 x10E3/uL
ALANINE AMINOTRANSFERASE [2]: 50.17 u/L
ALBUMIN [2]: 4.07 G/DL
ALKALINE PHOSPHATASE [2]: 367.5 u/L
ASPARTATE AMINOTRANSFERASE [2]: 81.67 u/L
BLOOD UREA NITROGEN [2]: 16.17 mg/dL
CARBON DIOXIDE [2]: 32.33 mmol/L
CHLORIDE [2]: 101.5 MEQ/L
CHOLESTEROL [2]: 65.33 mg/dL
CREATINE PHOSPHOKINASE [2]: 255.33 u/L
CREATININE [2]: 0.17 mg/dL
GLUCOSE [2]: 139.33 mg/dL
LACTATE DEHYDROGENASE [2]: 95 u/L
LIPASE [2]: 10.5 u/L
PHOSPHORUS [2]: 10.38 mg/dL
POTASSIUM [2]: 6.11 MEQ/L
SODIUM [2]: 145.55 MEQ/L
TOTAL BILIRUBIN [2]: 0.17 mg/dL
TOTAL PROTEIN [2]: 5.98 G/DL
URIC ACID [2]: 0.93 mg/dL
ABSOLUTE BASOPHIL [3]: 0 CELLS/uL
ABSOLUTE EOSINOPHIL [3]: 0 CELLS/uL
ABSOLUTE LYMPHOCYTE [3]: 13989.67 CELLS/uL
ABSOLUTE MONOCYTE [3]: 387.67 CELLS/uL
ABSOLUTE SEGMENTED NEUTROPHIL [3]: 2189.33 CELLS/uL
BASOPHIL [3]: 0%
EOSINOPHIL [3]: 0%
ERYTHROCYTE COUNT [3]: 5.22 x10E6/uL
HEMATOCRIT [3]: 34.5%
HEMOGLOBIN [3]: 13.43 G/DL
LEUKOCYTE COUNT [3]: 16.57 x10E3/uL
LYMPHOCYTE [3]: 84.33%
MEAN CORPUSCULAR HEMOGLOBIN [3]: 25.77 pg
MEAN CORPUSCULAR HEMOGLOBIN CONCENTRATION [3]: 38.97 G/DL
MEAN CORPUSCULAR VOLUME [3]: 66.17 fL
MONOCYTE [3]: 2.33%
NEUTROPHIL [3]: 13.33%
NUCLEATED RED BLOOD CELLS [3]: 0 /100WBC
PLATELET COUNT [3]: 1263.33 x10E3/uL
ALANINE AMINOTRANSFERASE [3]: 47.33 u/L
ALBUMIN [3]: 3.93 G/DL
ALKALINE PHOSPHATASE [3]: 317.67 u/L
ASPARTATE AMINOTRANSFERASE [3]: 97 u/L
BLOOD UREA NITROGEN [3]: 16.33 mg/dL
CARBON DIOXIDE [3]: 22 mmol/L
CHLORIDE [3]: 103 MEQ/L
CHOLESTEROL [3]: 59.67 mg/dL
CREATINE PHOSPHOKINASE [3]: 763 u/L
CREATININE [3]: 0.18 mg/dL
GLUCOSE [3]: 187 mg/dL
LACTATE DEHYDROGENASE [3]: 544.33 u/L
LIPASE [3]: 9 u/L
PHOSPHORUS [3]: 11.9 mg/dL
POTASSIUM [3]: 5.79 MEQ/L
SODIUM [3]: 142.7 MEQ/L
TOTAL BILIRUBIN [3]: 0.17 mg/dL
TOTAL PROTEIN [3]: 5.73 G/DL
URIC ACID [3]: 1.7 mg/dL

From ChEMBL document CHEMBL3885881, “DrugMatrix”
